Results: US7709511B2, “Benzothiazolone derivatives” (AstraZeneca AB, priority 2005, dated 2010)
Where a name gives a salt, the structure may show the parent alone.

Columns and labels:
[1] = target: T1, recombinant human α1D receptor (Homo sapiens, UniProt P25100); test: Adrenergic α1D selectivity assay, inhibition of [3H]-prazosin binding to membranes; conditions: HEK293 membranes, [3H]-prazosin 0.3 nM; read-out: α1 bind pIC50 (converted)
T1 construct: made in house; host or cells: HEK293 cells (membranes)
T1 sequence (P25100 1-572): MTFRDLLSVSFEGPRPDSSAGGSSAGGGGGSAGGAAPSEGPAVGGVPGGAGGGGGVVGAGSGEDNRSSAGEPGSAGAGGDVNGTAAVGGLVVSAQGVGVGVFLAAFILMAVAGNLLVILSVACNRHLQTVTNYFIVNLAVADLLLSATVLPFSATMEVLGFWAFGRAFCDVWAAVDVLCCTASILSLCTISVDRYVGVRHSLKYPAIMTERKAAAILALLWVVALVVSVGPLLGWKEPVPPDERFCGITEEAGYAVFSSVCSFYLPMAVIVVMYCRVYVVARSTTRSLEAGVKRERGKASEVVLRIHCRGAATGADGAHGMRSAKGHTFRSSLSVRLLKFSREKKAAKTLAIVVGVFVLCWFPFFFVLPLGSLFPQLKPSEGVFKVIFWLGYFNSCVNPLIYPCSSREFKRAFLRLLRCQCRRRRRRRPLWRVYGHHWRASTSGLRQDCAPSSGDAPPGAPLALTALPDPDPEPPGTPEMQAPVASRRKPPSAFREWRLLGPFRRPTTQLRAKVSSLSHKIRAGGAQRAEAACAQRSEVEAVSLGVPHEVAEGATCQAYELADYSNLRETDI
Protocol: Membranes were prepared from human embryonic kidney 293 (HEK293) cells expressing recombinant human α1D receptor. These were diluted in Assay Buffer (50 mM HEPES, 1 mM EDTA, 0.1% gelatin, pH 7.4) to provide a final concentration of membranes that gave a clear window between maximum and minimum specific binding.
Assays were performed in U-bottomed 96-well polypropylene plates. 10 μL [^3H]-prazosin (0.3 nM final concentration) and 10 μL of test compound (10× final concentration) were added to each test well. For each assay plate 8 replicates were obtained for [^3H]-prazosin binding in the presence of 10 μL vehicle (10% (v/v) DMSO in Assay Buffer; defining maximum binding) or 10 μL BMY7378 (10 μM final concentration; defining non-specific binding (NSB)). Membranes were then added to achieve a final volume of 100 μL. The plates were incubated for 2 hours at room temperature and then filtered onto PEI coated GF/B filter plates, pre-soaked for 1 hour in Assay Buffer, using a 96-well plate Tomtec cell harvester. Five washes with 250 μL wash buffer (50 mM HEPES, 1 mM EDTA, pH 7.4) were performed at 4° C. to remove unbound radioactivity. The plates were dried then sealed from underneath using Packard plate sealers and MicroScint-O (50 μL) was added to each well. The plates were sealed (TopSeal A) and filter-bound radioactivity was measured with a scintillation counter (TopCount, Packard BioScience) using a 3-minute counting protocol.
Total specific binding (B0) was determined by subtracting the mean NSB from the mean maximum binding. NSB values were also subtracted from values from all other wells. […] Data was fitted to a four parameter logistic equation to determine the compound potency, which was expressed as pIC50 (negative log molar concentration inducing 50% inhibition of [^3H]-prazosin binding).

[2] = target: T2, recombinant human adrenergic beta 1 receptors (Homo sapiens, UniProt P08588); test: Adrenergic β1 selectivity assay, inhibition of [125I]-Iodocyanopindolol binding to membranes; conditions: [125I]-Iodocyanopindolol 0.036 nM; read-out: β1 bind p IC50 (converted)
T2 construct: purchased Euroscreen
Protocol: Membranes containing recombinant human adrenergic beta 1 receptors were obtained from Euroscreen. These were diluted in Assay Buffer (50 mM HEPES, 1 mM EDTA, 120 mM NaCl, 0.1% gelatin, pH 7.4) to provide a final concentration of membranes that gave a clear window between maximum and minimum specific binding.
Assays were performed in U-bottomed 96-well polypropylene plates. 10 μL [^125I]-Iodocyanopindolol (0.036 nM final concentration) and 10 μL of test compound (10× final concentration) were added to each test well. For each assay plate 8 replicates were obtained for [^125I]-Iodocyanopindolol binding in the presence of 10 μL vehicle (10% (v/v) DMSO in Assay Buffer; defining maximum binding) or 10 μL Propranolol (10 μM final concentration; defining non-specific binding (NSB)). Membranes were then added to achieve a final volume of 100 μL. […] Five washes with 250 μL wash buffer (50 mM HEPES, 1 mM EDTA, 120 mM NaCl, pH 7.4) were performed at 4° C. to remove unbound radioactivity. […] The plates were sealed (TopSeal A) and filter-bound radioactivity was measured with a scintillation counter (TopCount, Packard BioScience) using a 3-minute counting protocol.
Total specific binding (B0) was determined by subtracting the mean NSB from the mean maximum binding. […]

T2 sequence (P08588 whole entry): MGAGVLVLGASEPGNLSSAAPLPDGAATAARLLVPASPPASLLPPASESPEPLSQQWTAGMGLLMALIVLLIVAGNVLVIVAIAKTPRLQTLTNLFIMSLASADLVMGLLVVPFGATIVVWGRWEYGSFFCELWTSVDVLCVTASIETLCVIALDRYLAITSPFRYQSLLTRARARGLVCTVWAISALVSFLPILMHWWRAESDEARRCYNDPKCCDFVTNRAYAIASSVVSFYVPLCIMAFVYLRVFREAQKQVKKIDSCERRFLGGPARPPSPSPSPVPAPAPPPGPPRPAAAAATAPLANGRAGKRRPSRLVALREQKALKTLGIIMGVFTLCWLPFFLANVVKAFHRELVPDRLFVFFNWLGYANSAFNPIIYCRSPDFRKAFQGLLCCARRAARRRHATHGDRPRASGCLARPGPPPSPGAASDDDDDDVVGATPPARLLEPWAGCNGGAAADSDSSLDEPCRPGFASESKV

SMILES | IC50 [1] | IC50 [2]
CCN(CC)CCN(CCNCCc1ccc(O)c2[nH]c(=O)sc12)C(=O)CCOCCc1ccc(Cl)cc1 [Example 26, 3-[2-(4-Chlorophenyl)ethoxy]-N-(2-diethylaminoethyl)-N-{2-[2-(4-hydroxy-2-oxo-2,3-dihydro-1,3-benzothiazol-7-yl)ethylamino]ethyl}propanamide dihydrobromide] | 3160 nM | 1000 nM
CCN(CC)CCN(CCNCCc1ccc(O)c2[nH]c(=O)sc12)C(=O)CCOCCc1cccc(C)c1 [Example 28, N-[2-(Diethylamino)ethyl]-N-(2-{[2-(4-hydroxy-2-oxo-2,3-dihydro-1,3-benzothiazol-7-yl)ethyl]amino}ethyl)-3-[2-(3-methylphenyl)ethoxy]propanamide] | 1260 nM | 1000 nM
